Data: PubChem BioAssay (NCI)
Values joined by “and” are separate entries in the source; they are usually repeats but may differ in a detail not shown here. Equal entries are not always repeated.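 These data come from cells grown in 96-well plates and exposed to compound for 48 hours at five concentrations. Here, GI50 denotes the concentration required for 50% inhibition of growth. TGI: total growth inhibition.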

Columns and labels:
Assay in all cases: NCI tumour cell line growth inhibition, 48 h
[1] = tested on: SF-295 CNS
[2] = tested on: HL-60(TB) leukemia
[3] = tested on: SN12C renal
[4] = tested on: SF-268 CNS
[5] = tested on: SW-620 colon
[6] = tested on: NCI-H23 lung
[7] = tested on: TK-10 renal
[8] = tested on: K-562 leukemia
[9] = tested on: OVCAR-3 ovarian
[10] = tested on: SK-OV-3 ovarian

SMILES	GI50 [1]	TGI [1]	GI50 [2]	TGI [2]	GI50 [3]	TGI [3]	GI50 [4] [µM]	TGI [4] [µM]	GI50 [5]	TGI [5]	GI50 [6]	TGI [6]	GI50 [7]	TGI [7]	GI50 [8]	TGI [8]	GI50 [9]	TGI [9]	GI50 [10]	TGI [10]
O=C(O)c1cc[c]([Hg][S]c2ncnc3nc[nH]c23)cc1	11.7 µM	> 100 µM	0.4 µM	13.4 µM	17.5 µM	38.6 µM	5.15	19	11.4 µM	23.5 µM	15.5 µM	34.8 µM	2.59 µM	14.3 µM	1.7 µM	15.7 µM	1.88 µM	19.9 µM	10.8 µM	23.2 µM
COc1cc2cc(Oc3ccc(NC(=O)c4cccc(C(F)(F)F)c4)cc3)c(C)nc2cc1OC	2.73 µM	> 100 µM	3.84 µM	> 100 µM	6.39 µM	> 100 µM	> 100	> 100	10.2 µM	> 100 µM	4.11 µM	> 100 µM	5.18 µM	> 100 µM	4.25 µM	> 100 µM	3.96 µM	45.5 µM	> 100 µM	> 100 µM
CC1(C)N=C(N)N=C(N)N1c1ccc(CCc2ccccc2)c(Cl)c1	0.0529 µM	11.3 µM	0.0473 µM	2.72 µM	0.0883 µM	13 µM	0.0552	14.3	0.0388 µM	13.8 µM	0.0791 µM	15 µM	1.96 µM	18.3 µM	0.0323 µM	14.6 µM	0.281 µM	12.4 µM	1.04 µM	18.4 µM
Fc1cccc(Cl)c1C1SCc2nc3ccccc3n21 (stereo not drawn)	–	95.2 µM	–	33.2 µM	–	> 100 µM	–	> 100	–	> 100 µM	–	80.4 µM	–	> 100 µM	–	> 100 µM	–	53.2 µM	–	62.2 µM
COC(=O)c1ccc2c(c1)C(NC(C)=O)CCc1cc(OC)c(OC)c(OC)c1-2 (stereo not drawn)	–	3.03 µM	–	0.0285 µM	–	> 96.1 µM	–	77.9	–	> 100 µM	–	1.35 µM	–	> 100 µM	–	28.1 µM	–	1.23 µM	–	13.9 µM
S=C(N/N=C/c1cc(Cl)cc(Cl)c1)NC12CC3CC(CC(C3)C1)C2	3.92 µM	> 24.5 µM	> 100 µM	> 100 µM	–	> 100 µM	6.18	> 100	13.4 µM	> 100 µM	10.6 µM	> 100 µM	4.44 µM	19.1 µM	> 100 µM	> 100 µM	6.03 µM	> 100 µM	5.06 µM	> 46 µM
C#C[C@]1(O)CC[C@H]2[C@@H]3CC=C4c5nc(Nc6ccccn6)sc5CC[C@]4(C)[C@H]3CC[C@@]21C	0.218 µM	0.489 µM	0.398 µM	1.96 µM	1.75 µM	3.62 µM	1.85	6.87	1.24 µM	2.91 µM	1.67 µM	6.64 µM	2.22 µM	5.08 µM	0.348 µM	2.13 µM	1.43 µM	3.29 µM	1.32 µM	5.29 µM
CN1CCCN(CCNc2nccc(-c3c(-c4cccc(O)c4)nc4sccn34)n2)S1(=O)=O	12.9 µM and 13.3 µM	32.1 µM and 38.8 µM	14.1 µM and 11.3 µM	38.3 µM and 32 µM	8.55 µM and 6.23 µM	75 µM and > 100 µM	17.7	> 100	18.7 µM and 19.1 µM	75 µM and > 100 µM	11.1 µM and 14.4 µM	37.8 µM and 72.9 µM	13 µM and 11.6 µM	64.6 µM and 73.2 µM	12.9 µM and 5.9 µM	75 µM and > 100 µM	13.7 µM and 7.69 µM	75 µM and 99 µM	3.44 µM and 3.21 µM	21.3 µM and 17 µM
CC(=O)N(CCN)CCN	–	> 10 µM	–	> 10 µM	–	> 10 µM	–	> 100	–	> 10 µM	–	> 10 µM	–	> 10 µM	–	> 10 µM	–	> 10 µM	–	> 100 µM
C/C(=N/N(C=O)C[n+]1ccccc1)C(CN(CC(C)C)CC(C)C)C(=O)Nc1ccc(C)cc1C (stereo not drawn)	–	> 100 µM	–	> 100 µM	–	> 100 µM	–	> 100	–	> 100 µM	–	> 100 µM	–	> 100 µM	–	> 100 µM	–	> 100 µM	–	> 100 µM
CCN(c1ccc(CO)c(Cl)c1)C(C)c1ccc(F)cc1 (stereo not drawn)	11.5 µM	24.3 µM	17.9 µM	38.1 µM	14.2 µM	28.5 µM	17	31.9	14.1 µM	30.2 µM	14 µM	30.5 µM	1.12 µM	6.11 µM	9.86 µM	24.7 µM	13.7 µM	27.3 µM	15.7 µM	29.2 µM
CC(C)c1ccc2nc3ccc(C(=O)NCCN(C)C)cn3c(=O)c2c1	–	23.8 µM	–	42.1 µM	–	35.9 µM	–	36.3	–	28.6 µM	–	33.9 µM	–	34.3 µM	–	9.46 µM	–	> 100 µM	–	33.5 µM
CNC(=O)Nc1ccc(-c2nc(N3CCOCC3)nc3c2cnn3C2CCOCC2)cc1	0.0716 µM	0.585 µM	1.01 µM	> 100 µM	0.213 µM	> 100 µM	0.284	> 51.3	0.332 µM	> 100 µM	0.267 µM	> 100 µM	0.172 µM	1.47 µM	0.533 µM	> 100 µM	0.21 µM	–	0.12 µM	0.685 µM
CC1(C)CCC(C)(C)c2cc(C(=O)Nc3ccc(C(=O)O)cc3)ccc21	–	> 54.7 µM	–	> 53.1 µM	–	> 100 µM	–	> 87.4	–	> 100 µM	–	37.8 µM	–	> 73.3 µM	–	> 100 µM	–	40.4 µM	–	> 61.1 µM
COC1/C=C/OC2(C)Oc3c(C)c(O)c4c(c3C2=O)C(=O)C=C(NC(=O)/C(C)=C\C=C\C(C)C(OC=O)C(C)C(O)C(C)C(OC(C)=O)C1C)C4=O (stereo not drawn)	–	51 µM	–	5.88 µM	–	29.5 µM	–	37.1	–	14 µM	–	30.6 µM	–	30.4 µM	–	20.7 µM	–	11.9 µM	–	56.7 µM
CC(C)N(C(C)C)[PH+]1O[PH+](N(C(C)C)C(C)C)O[PH+](N(C(C)C)C(C)C)O[PH+](N(C(C)C)C(C)C)O[PH+](N(C(C)C)C(C)C)O1.[C-]#[O+].[C-]#[O+].[C-]#[O+].[C-]#[O+].[C-]#[O+].[C-]#[O+].[C-]#[O+].[Cr].[Cr] (stereo not drawn)	> 100 µM	> 100 µM	> 100 µM	> 100 µM	> 100 µM	> 100 µM	> 100	> 100	> 100 µM	> 100 µM	> 100 µM	> 100 µM	> 100 µM	> 100 µM	> 100 µM	> 100 µM	> 100 µM	> 100 µM	> 100 µM	> 100 µM
COc1cc(-c2oc3ccccc3c(=O)c2O)cc(OC)c1OC	–	> 100 µM	–	> 28.1 µM	–	> 100 µM	–	> 100	–	> 100 µM	–	> 100 µM	–	> 88.5 µM	–	> 100 µM	–	> 100 µM	–	> 100 µM
Nc1cc(N)c2nc(-c3ccccc3)c(Oc3ccc(F)cc3)nc2c1	20.3 µM	38.5 µM	18.5 µM	64.8 µM	19.3 µM	52.7 µM	13.8	47.6	19.5 µM	50.1 µM	20.7 µM	40.2 µM	20.4 µM	46.3 µM	10.9 µM	> 100 µM	15.4 µM	41.7 µM	20.7 µM	41.4 µM
COc1ccc(Cl)cc1Nc1nc(C(F)(F)F)ccc1C(=O)NN	1.97 µM	11.7 µM	2.75 µM	18.6 µM	11.4 µM	> 100 µM	1.38	> 100	27.9 µM	> 100 µM	9.11 µM	> 49.5 µM	3.81 µM	> 100 µM	3.35 µM	> 100 µM	0.615 µM	> 24.5 µM	3.88 µM	> 68.1 µM
NS(=O)(=O)c1ccc(N2Cc3cc(Cl)ccc3OC3=C2C(=O)N(CC2CCCCC2)C3=O)cc1	1.81 µM	4.03 µM	0.283 µM	0.828 µM	1.01 µM	2.57 µM	1.22	2.69	0.202 µM	0.445 µM	1.64 µM	3.61 µM	1.22 µM	2.48 µM	0.27 µM	0.736 µM	0.207 µM	0.429 µM	2.07 µM	4.26 µM
COc1ccc(-c2cc(-c3ccc(Cl)cc3)c(C#N)c(=O)n2CCCCC(=O)Nc2ccccc2N)cc1	2.33 µM	5.96 µM	2.08 µM	5.7 µM	9.32 µM	> 100 µM	22.1	> 100	12.6 µM	> 100 µM	12.7 µM	55.3 µM	27.9 µM	> 100 µM	4.18 µM	> 100 µM	13.5 µM	56.6 µM	11.3 µM	54.3 µM
CSc1ccc(C2=Nn3c(nnc3-c3ccc(F)c(Cl)c3)SC2)cc1	3.57 µM	17.5 µM	5.39 µM	> 100 µM	2.67 µM	9.78 µM	75.7	> 100	11.6 µM	> 100 µM	37.4 µM	> 100 µM	7.52 µM	21.2 µM	2.28 µM	> 100 µM	5.62 µM	21 µM	13.5 µM	41.9 µM
O=C(C(=O)c1ccc(Cc2ccc(C(=O)C(=O)c3ccccc3)cc2)cc1)c1ccccc1	–	> 100 µM	–	> 100 µM	–	> 100 µM	–	> 100	–	> 100 µM	–	> 100 µM	–	> 100 µM	–	> 100 µM	–	> 100 µM	–	> 100 µM
O=c1nc(-c2ccccc2)c2c3c(cccn13)CCC2	–	> 100 µM	–	> 100 µM	–	> 100 µM	–	> 100	–	> 100 µM	–	> 100 µM	–	> 100 µM	–	> 100 µM	–	> 100 µM	–	> 100 µM
Cc1cc2c(cc1C)NC1=C(N2)OC(c2c[nH]c3ccc(COc4ccccc4)cc23)C1=O (stereo not drawn)	–	> 100 µM	–	> 100 µM	–	> 100 µM	–	> 100	–	> 100 µM	–	> 100 µM	–	> 100 µM	–	> 100 µM	–	> 100 µM	–	> 100 µM
N/C(=N\OC(=O)c1ccccc1)C(C(=O)NOC(=O)c1ccccc1)C1CCCCC1 (stereo not drawn)	2.11 µM	5.73 µM	2.38 µM	6.07 µM	13.4 µM	69.4 µM	2.39	6.7	11.5 µM	27.7 µM	9.28 µM	24.1 µM	12.4 µM	26.9 µM	3.08 µM	10.6 µM	4.56 µM	15.9 µM	15.8 µM	29.7 µM
Cc1cccc(NC(=O)c2sc3nc4c(cc3c2N)CCCC4)c1C	0.516 µM	> 100 µM	0.266 µM	0.941 µM	0.61 µM	> 100 µM	1.03	> 100	0.369 µM	> 100 µM	0.519 µM	> 100 µM	23.3 µM	> 100 µM	0.238 µM	> 100 µM	0.285 µM	0.871 µM	0.581 µM	> 100 µM
COc1ccc(C2SC(N)=Nc3c2c(C)nn3C(=O)c2ccc(Cl)cc2)cc1OC (stereo not drawn)	–	> 10 µM	–	> 10 µM	–	> 10 µM	–	> 10	–	> 10 µM	–	> 10 µM	–	> 10 µM	–	> 10 µM	–	> 10 µM	–	> 10 µM
CCC1(Br)C(=O)NC(=O)N(C2CC(O)C(CO)O2)C1N=[N+]=[N-] (stereo not drawn)	–	> 100 µM	–	> 100 µM	–	> 100 µM	–	> 100	–	> 100 µM	–	> 100 µM	–	> 100 µM	–	> 100 µM	–	> 100 µM	–	> 100 µM
